# Test results published in patent US8648116B2, “Derivatives of N-(arylamino) sulfonamides including polymorphs as inhibitors of MEK as well as compositions, methods of use and methods for preparing the same” (Ardea Biosciences, Inc., priority 2005, dated 2014).
# Where “and” joins values, the source holds several entries; their conditions need not be identical. Identical values can stand only once. Like-named read-outs stand apart in the source and are kept apart here. Marks after values point to notes of the source that are not given here.
# How the values were obtained:
# [1] = system: MDA pERK; assay: MDA pERK ELISA; type: cell-based
# [2] = system: Complete Freund's Adjuvant induced arthritis; assay: Rat adjuvant arthritis inflammation assay; type: in vivo, rats; conditions: 10 mg/kg subcutaneous on days 1 and 4
# Procedure: In the rat adjuvant induced arthritis model, Complete Freund's Adjuvant (CFA) is injected into the right hind paw of rats to induce pathologies similar to rheumatoid arthritis in humans. Compound A was administered orally for 5 consecutive days at 2, 6, and 20 mg/kg. Dexamethasone at 5 m g/kg was also administered orally for 5 days. Enbrel at 10 mg/kg was administered by subcutaneous injection on days 1 and 4. CFA was injected into the right hind paw one hour after the first dose on day 1. […] Polyarthritis was scored as the presence of swelling in front paws, tail, nose or ear.
# [3] = system: orthotopic Hep3B2.1-7 human hepatic carcinoma; assay: Growth response of orthotopic Hep3B tumors in nude mice; type: in vivo, BALB/c nu/nu mice
# Procedure: (§1) Female BALB/c nu/nu mice (University of Adelaide, Waite Campus, SA, Australia), aged 10-14 weeks, with a body weight range: of 19.1-29.94 g (mean 22.95 g) were used for the study. The mice were divided into 6 Study groups (4 treatment groups and 2 control groups) as follows: • Number of Mice per Group: 10 in Groups 1 to 5 inclusive • 15 in ‘Take-Rate’ Control Group (Group 6)
# Hep3B human hepatic carcinoma cells (Passage 2 from working stock VP-Stock 353) were cultured in RPMI1640 cell culture medium, which was supplemented with 10% FBS and penicillin-streptomycin (501 U/mL final concentration). The cells were harvested by trypsinisation, washed twice in HBSS and counted. The cells were then resuspended in HBSS:Matrigel (1:1, v/v) and adjusted to a final volume containing 1×10^8 cells/mL. Prior to inoculation, the incision site was liberally swabbed with alcohol and an incision made through the abdominal wall to expose the liver. The needle was introduced through the surface of the liver where 10 μL of cells (1×10^6 cells) were discharged. The needle was held in this position for approximately 30 seconds to allow the Matrigel® to polymerize in order to avoid leakage of tumor cells into the abdominal cavity.
# Treatment commenced 14 days post-inoculation. On Day 7 of the study (21 days post-inoculation), all mice from the ‘Take-Rate’ control group were culled and the livers visually assessed for the presence of tumors.
# A stock solution was prepared weekly and stored at 4° C. Dosing solutions were prepared on each day of administration. […] The compound was administered at doses of 2, 10 and 50 mg/kg.
# Liver and tumor wet weight were measured when each were excised post-mortem on the termination day of the study. At the termination of the study, livers were excised from all mice in each study group and weighed. The number of visible tumors, if present, was counted. These tumors were removed from the liver and weighed.
# A One-Way Analysis of Variance (ANOVA) (All Pairwise Multiple Comparison Procedure and Multiple Comparison versus Control Group) was performed on liver weight and tumor weight data at the end of the study. […] The same statistical analyses were performed on the data for the tumor-bearing mice in the study.
# [4] = system: orthotopic HT-29 human colorectal adenocarcinoma; assay: Growth response of orthotopic HT-29 colon tumors in nude mice; type: in vivo, BALB/c nu/nu mice
# Procedure: as §1, with “7-12” for “10-14”, “16.58-25.39” for “19.1-29.94”, “21.52” for “22.95”, “9” for “15”
# HT-29 human colorectal adenocarcinoma cells (Passage 4 from working stock VP-Stock 325) were cultured in RPMI1640 cell culture medium, which was supplemented with 10% FBS and penicillin-streptomycin (501 U/mL final concentration). The cells were harvested by trypsinisation, washed twice in HBSS and counted. The cells were then resuspended in HESS and adjusted to a final volume containing 2×10^8 cells/mL. Prior to inoculation, the incision site was liberally swabbed with alcohol and an incision made through the abdominal wall to expose the caecum wall. The needle was introduced through the surface of the caecum wall where 5 μL of cells (1×10^6 cells) were discharged.
# A stock solution was prepared weekly and stored at 4° C. Dosing solutions were prepared on each day of administration.
# Caecum and tumor wet weight were measured when each were excised post-mortem on the termination day of the study. At the termination of the study, the caecum was excised from all mice in each study group and weighed with the tumors intact. The tumors were then excised from the caecum and weighed.
# A two-sample t-test was used to determine the significance in body weight change within a treatment group between Day 0 and the termination day of the study. […] In these groups, a two-sample t-test was used to determine the significance in body weight change within a treatment group between Day 0 and the final treatment day of the study, and between the last treatment day and the termination day of the study.
# A One-Way Analysis of Variance (ANOVA) (All Pairwise Multiple Comparison Procedure and Multiple Comparison versus Control Group) was performed on the caecum weight and tumor weight data at the end of the study.
# [5] = Dynamic vapor sorption/desorption (DVS); type: physicochemical; conditions: Form A; 5% to 95% relative humidity
# Procedure: Moisture sorption/desorption data were collected on a VTI SGA-100 Vapor Sorption Analyzer. Sorption and desorption data were collected over a range of 5% to 95% relative humidity (RH) at 10% RH intervals under a nitrogen purge. Samples were not dried prior to analysis. Equilibrium criteria used for analysis were less than 0.0100% weight change in 5 minutes, with a maximum equilibration time of 3 hours if the weight criterion was not met. Data were not corrected for the initial moisture content of the samples. Sodium chloride and polyvinypyrrolidine were used as calibration standards.
# [6] = system: A375 cells; assay: Evaluation of cell cycle arrest (propidium iodide, flow cytometry); type: cell-based, human; conditions: 24 hr
# Procedure: A375 cells were plated in 96-well microplates at 10,000 cells/200 μl/well. […] After another 24 hr, cells were trypsinized, fixed in 200 μl Prefer (Anatech, Battle Creek, Mich.), and stored at 4° C. overnight. Cells were then rinsed in PBS, permeabilized and stained in 0.1% Triton X-100, 200 μg/ml DNase-free RNase, and […] propidium iodide (Molecular Probes, Sunnyvale, Calif.), and analyzed on the Guava PCA-96 (Guava Technologies, Foster City, Calif.). Data were analyzed using ModFit LT (version 3.0, Verity, Topsham, Me.).
# [7] = system: Colo205 tumor cells; assay: ED50 in Colo205 xenografts (Example 94D); type: in vivo, nu/nu mice; conditions: Paclitaxel 30 mg/kg IV QODx5, Colo205 xenografts
# Excerpt: Male nu/nu mice were implanted with Colo205 tumor cells. After 10 days animals were randomized by tumor size (range 126-256 mm^3) and treated with paclitaxel (IV, QODx5), vehicle or Compound A (PO, QDx14).
# [8] = system: COLO 205 human colon carcinoma xenografts; assay: Activity against subcutaneous COLO 205 xenografts (Example 118)
# Procedure: Dosing solutions of Compound A were prepared fresh daily by dissolving the required amount of compound in 100% Cremophor EL, and then diluting ten-fold with normal saline. Final dosing solution concentrations were 2.5, 5, 10, or 20 mg/mL, in order to provide respective doses of 25, 50, 100 or 200 mg/kg in a dosing volume of 10 mL/kg. Paclitaxel (Natural Pharmaceuticals, Inc.) was prepared fresh on each day of dosing in a vehicle consisting of 5% ethanol and 5% Cremophor EL in 90% D5W (5% EC vehicle).
# Group 1 received the formulation vehicle (10% Cremophor EL in saline), and served as the tumor growth control group. Group 2 received the reference drug paclitaxel administered on its optimal schedule in nude mice (30 mg/kg i.v. qod×5). […] All doses were scaled to the weight of the animal (0.2 mL per 20 grams body weight).
# Tumors were measured twice each week using calipers. […] Therefore endpoint tumor size of 800 mm^3 was used for analysis of tumor growth delay (TGD).
# [formula] where b is the intercept and m is the slope of the line obtained by linear regression of a log-transformed tumor growth data set.
# [9] = system: human A375 melanoma xenografts
# [10] = 5FU 75 mg/kg i.v. Day 0, 7 and 14, tumor-bearing mice
# [11] = 5FU 75 mg/kg, individual animals, listed as 5FU
# [12] = 5FU 75 mg/kg, mice surviving to final day
# [13] = Group 2, paclitaxel 30 mg/kg iv qod × 14 per the 39th table (qod×5), n=9
# [14] = Group 2: Paclitaxel 30 mg/kg iv qod×5
# [15] = Group 2: Paclitaxel 30 mg/kg iv qod×5, n=9
compound,measurement,setting,value
O=S(=O)(Nc1ccc(F)c(F)c1Nc1ccc(I)cc1F)c1ccc(-c2nsc(Cl)n2)s1 [Example 0530701],EC50,[1],100 to 200 nM
CC(=O)c1cccc(-c2ccc(Nc3c(NS(=O)(=O)C4CC4)ccc(F)c3F)c(F)c2)c1 [Example 0499266],EC50,[1],> 200 nM
CNCCS(=O)(=O)Nc1ccc(F)c(F)c1Nc1ccc(I)cc1F [Example 0621002],EC50,[1],15 to 100 nM
enbrel,animals without swelling in the tail (polyarthritis scoring),[2],3 of 6
same,protection from front paw swelling (polyarthritis scoring),[2],no animals were protected
CS(=O)(=O)Nc1ccc(-c2ccc(Nc3c(NS(=O)(=O)C4CC4)ccc(F)c3F)c(F)c2)cc1 [Example 0499271],EC50,[1],> 200 nM
O=S(=O)(Nc1ccc(F)c(F)c1Nc1ccc(-c2cc[nH]n2)cc1F)C1CC1 [Example 0497654],EC50,[1],100 to 200 nM
CCN(C)CCS(=O)(=O)Nc1ccc(F)c(F)c1Nc1ccc(I)cc1F [Example 0621029],EC50,[1],100 to 200 nM
O=S(=O)(Nc1ccc(F)c(F)c1Nc1ccc(-c2cccnc2)cc1F)C1CC1 [Example 0497689],EC50,[1],> 200 nM
"O=c1[nH]cc(F)c(=O)[nH]1 [5-Fluorouracil, reference compound]",No. of Mice with Tumors (out of 10),"[3]; 5FU 75 mg/kg i.v. Day 0, 7 and 14",4
same,Average Liver Weight,[3]; [10],1.217 g
same,Average Tumor Weight,[3]; [10],0.143 g
same,average weight of the tumors vs Vehicle Control,"[3]; tumor-bearing mice, 75 mg/kg i.v. once per week",significantly different
same,average weight of the liver vs Vehicle Control,"[3]; tumor-bearing mice, 75 mg/kg i.v. once per week, p<0.05",significantly different
same,weight of the caecum and HT-29 tumors,[4]; 75 mg/kg i.v. once per week,no effect
same,Caecum Weight,[4]; [11],0.355 g and 0.199 g and 0.360 g and 0.284 g and 0.421 g and 0.706 g and 0.415 g and 0.327 g and 0.237 g and 0.377 g
same,Tumour Weight,[4]; [11],0.245 g and 0.001 g and 0.000 g (3×) and 0.010 g and 0.329 g and 0.130 g and 0.079 g and 0.003 g
same,Average Caecum Weight,[4]; [12],0.391 g
same,Average Tumour Weight,[4]; [12],0.069 g
COC(=O)c1sccc1S(=O)(=O)Nc1ccc(F)c(F)c1Nc1ccc(I)cc1F [Example 0620926],EC50,[1],> 200 nM
O=S(=O)(Nc1ccc(F)c(F)c1Nc1ccc(-c2cn[nH]c2)cc1F)C1CC1 [Example 0497618],EC50,[1],> 200 nM
COc1cc(F)c(F)c(Nc2ccc(I)cc2F)c1NS(=O)(=O)C1(C[C@H](O)CO)CC1 [listing 1 of 2 here],weight change in DVS,[5],negligible weight change
O=S(=O)(Nc1ccc(F)c(F)c1Nc1ccc(-c2ccncc2)cc1F)C1CC1 [Example 0497688],EC50,[1],> 200 nM
O=S(=O)(Nc1ccc(F)c(F)c1Nc1ccc(I)cc1F)c1ccsc1 [Example 0620927],EC50,[1],15 to 100 nM
Cn1cc(S(=O)(=O)Nc2ccc(F)c(F)c2Nc2ccc(I)cc2F)c(C(F)(F)F)n1 [Example 0621026],EC50,[1],100 to 200 nM
COc1cc(F)c(F)c(Nc2ccc(I)cc2F)c1NS(=O)(=O)C1(C[C@H](O)CO)CC1 [listing 2 of 2 here],Phase % G1,[6]; 37 nM,74.3%
same,Phase % G2,[6]; 37 nM,7.0%
same,Phase % S,[6]; 37 nM,18.7%
same,Phase % G1,[6]; 111 nM,84.7%
same,Phase % G2,[6]; 111 nM,3.5%
same,Phase % S,[6]; 111 nM,11.8%
"CC(=O)O[C@H]1C(=O)[C@@]2(C)[C@H]([C@H](OC(=O)c3ccccc3)[C@]3(O)C[C@H](OC(=O)[C@H](O)[C@@H](NC(=O)c4ccccc4)c4ccccc4)C(C)=C1C3(C)C)[C@]1(OC(C)=O)CO[C@@H]1C[C@@H]2O [paclitaxel, reference compound]",Day 15 Tumor Volume,[7],113 ± 9.6 mm^3
same,% TGI,[7]; Day 15,104* %
same,PR responses,"[8]; Group 2, 30 mg/kg i.v. qod×5",Five
same,MTV,"[8]; Group 2, 30 mg/kg i.v. qod×5, Day 74",143 mm^3
same,% TGD,[8]; [13],46%
same,MTV (n) Day 74,[8]; [13],0 (3)
same,Median TTE,[8]; [13],60.0 days
same,No of CR,[8]; [13],0
same,No of NTR (non-treatment-related deaths),[8]; [13],2
same,No of PR,[8]; [13],1
same,No of TFS,[8]; [13],0
same,No of TR (treatment-related deaths),[8]; [13],2
same,"SS (statistical significance, logrank vs Group 1)",[8]; [13],ns
same,T − C,[8]; [13],19.0 days
same,Median TTE,"[9]; Group 2, 30 mg/kg iv qod×5",28.8 days
same,TGD,"[9]; Group 2, 30 mg/kg iv qod×5",26%
same,tumor regressions,"[9]; Group 2, 30 mg/kg iv qod×5",No tumor regressions
same,% TGD,[9]; [14],26%
same,Median TTE,[9]; [14],28.8 days
same,T − C,[9]; [14],6.0 days
same,Regressions CR,[9]; [15],0
same,Regressions PR,[9]; [15],0
same,Regressions TFS,[9]; [15],0
COC(=O)c1ccc(S(=O)(=O)Nc2ccc(F)c(F)c2Nc2ccc(I)cc2F)n1C [Example 0561608],EC50,[1],15 to 100 nM
O=S(=O)(Nc1ccc(F)c(F)c1Nc1ccc(-c2ccccc2)cc1F)C1CC1 [Example 0497692],EC50,[1],> 200 nM
O=S(=O)(Nc1ccc(F)c(F)c1Nc1ccc(I)cc1F)C1CCNCC1 [Example 0561599],EC50,[1],15 to 100 nM
CN(C)CCNCCS(=O)(=O)Nc1ccc(F)c(F)c1Nc1ccc(I)cc1F [Example 0621016],EC50,[1],15 to 100 nM
Cn1cc(-c2ccc(Nc3c(NS(=O)(=O)C4CC4)ccc(F)c3F)c(F)c2)cn1 [Example 0497620],EC50,[1],> 200 nM
